Laboratory results taken from patent US20050239654A1, “Synergistically acting herbicidal mixtures” (priority 2002, published 2005).

Key:
Experiment in all cases: Herbicidal action, post-emergence treatment, greenhouse
Type in all cases: in vivo
Commelina benghalensis = settings: Table 4, 3.91 g/ha ai
Source text: (§1) The mixtures according to the invention were applied pre- or post-emergence (foliar treatment). The herbicidal compounds of component B and, if desired, of component C were applied in the formulation in which they are present as commercially available product.
(§2) The herbicidally active compounds of components A), B) and, if desired, C) were applied in succession or jointly, in the latter case in some cases as a tank mix and in some cases as a ready-mix, in the form of emulsions, aqueous solutions or suspensions, the vehicle being water (300-400 l/ha). In the case of the field trials, application was effected with the aid of a mobile plot sprayer.
(§3) The test period extended over 3 to 8 weeks, and the stands were also observed at later points in time.
(§4) Damage by the herbicidal compositions was evaluated with reference to a scale of 0% to 100 in comparison with untreated control plots. 0 means no damage and 100 means complete destruction of the plants.
(§5) In these examples, the value E at which only an additive effect of the individual active ingredients is to be expected was calculated by the method of S. R. Colby (Calculating synergistic and antagonistic responses of herbicide combinations, Weeds 15, 20 pp (1967)).
(§6) This was done using the formula [formula] where • X=Percentage of the herbicidal action of X at an application rate of x; • Y=Percentage of the herbicidal action of Y at an application rate of Y; • E=expected herbicidal action of X+Y at rates of application x+y (in %); or the formula [formula] where • X=Percentage of the herbicidal action of X at an application rate of x; • Y=Percentage of the herbicidal action of Y at an application rate of y; • Z=Percentage of the herbicidal action of Z at an application rate of z; • E=expected herbicidal action of X+Y+Z at rates of application x+y+z (in %)
(§7) If the value observed exceeds the value E calculated in accordance with Colby's formula, then synergism is present.

Abutilon theophrasti = test system: Abutilon theophrasti
Source text: as §1, §2, §3, §4, §5, §6, §7

Galium aparine = test system: Galium aparine
Source text: as §1, §2, §3, §4, §5, §6, §7

Avena fatua = test system: Avena fatua
Source text: as §1, §2, §3, §4, §5, §6, §7

Amaranthus retroflexus = test system: Amaranthus retroflexus
Source text: as §1, §2, §3, §4, §5, §6, §7

Polygonum persicaria = test system: Polygonum persicaria
Source text: as §1, §2, §3, §4, §5, §6, §7

Echinochloa crus-galli = test system: Echinochloa crus-galli
Source text: as §1, §2, §3, §4, §5, §6, §7

Brachiaria plantaginea = test system: Brachiaria plantaginea
Source text: as §1, §2, §3, §4, §5, §6, §7

Pharbitis purpurea = settings: Table 12, 62.5 g/ha ai
Source text: as §1, §2, §3, §4, §5, §6, §7

## Cc1c(C(=O)c2cnn(C)c2O)ccc(S(C)(=O)=O)c1C1=NOCC1 [Ia.29, 4-[2-methyl-3-(4,5-dihydroisoxazol-3-yl)-4-methylsulfonyl-benzoyl]-1-methyl-5-hydroxy-1H-pyrazole]
Commelina benghalensis
  Commelina benghalensis Damage: 50%
Abutilon theophrasti; Table 3, 0.98 g/ha ai
  Abutilon theophrasti Damage: 30%
Abutilon theophrasti; Table 9, 7.81 g/ha ai
  Abutilon theophrasti Damage: 85%
Galium aparine; Table 7, 0.98 g/ha ai
  Galium aparine Damage: 20%
Galium aparine; Table 8, 1.95 g/ha ai
  Galium aparine Damage: 30%
Avena fatua; Table 5, 0.98 g/ha ai
  Avena fatua Damage: 0%
Avena fatua; Table 6, 1.95 g/ha ai
  Avena fatua Damage: 10%
Amaranthus retroflexus; Table 5, 0.98 g/ha ai
  Amaranthus retroflexus Damage: 60%
Amaranthus retroflexus; Table 7, 0.98 g/ha ai
  Amaranthus retroflexus Damage: 60%

## CCNc1nc(Cl)nc(NC(C)C)n1 [atrazine]
Polygonum persicaria; Table 11, 125 g/ha ai
  Polygonum persicaria Damage: 60%
Polygonum persicaria; Table 13, 62.5 g/ha ai
  Polygonum persicaria Damage: 40%
Polygonum persicaria; Table 17, 62.5 g/ha ai
  Polygonum persicaria Damage: 40%
Abutilon theophrasti; Table 9, 125 g/ha ai
  Abutilon theophrasti Damage: 30%
Abutilon theophrasti; Table 14, 125 g/ha ai
  Abutilon theophrasti Damage: 30%
Galium aparine; Table 7, 15.6 g/ha ai
  Galium aparine Damage: 0%
Galium aparine; Table 8, 31.25 g/ha ai
  Galium aparine Damage: 20%
Galium aparine; Table 11, 125 g/ha ai
  Galium aparine Damage: 60%
Galium aparine; Table 15, 125 g/ha ai
  Galium aparine Damage: 60%
Echinochloa crus-galli; Table 10, 125 g/ha ai
  Echinochloa crus-galli Damage: 30%
Echinochloa crus-galli; Table 12, 62.5 g/ha ai
  Echinochloa crus-galli Damage: 20%
Echinochloa crus-galli; Table 14, 125 g/ha ai
  Echinochloa crus-galli Damage: 30%
Echinochloa crus-galli; Table 16, 62.5 g/ha ai
  Echinochloa crus-galli Damage: 20%
Brachiaria plantaginea; Table 10, 125 g/ha ai
  Brachiaria plantaginea Damage: 25%
Brachiaria plantaginea; Table 16, 62.5 g/ha ai
  Brachiaria plantaginea Damage: 20%
Pharbitis purpurea
  Pharbitis purpurea Damage: 80%
Amaranthus retroflexus; Table 7, 15.6 g/ha ai
  Amaranthus retroflexus Damage: 40%
